Where “and” joins values, the source holds several entries; their conditions need not be identical. Identical values can stand only once. Like-named read-outs stand apart in the source and are kept apart here.
Assays:
[1] = tested on: LNCaP-ENR cells; assay: Apoptosis by Annexin V binding, flow cytometry; assay type: cell-based, human; conditions: LNCaP-ENR cells, 8 μM, 24 hours, flow cytometry
Protocol: To test DCV effects on cancer cell apoptosis, LNCaP-ENR cells were treated with 8 μM DCV for 24 hours and analyzed by flow cytometry. Treatment with DCV indicated increased Annexin V binding, a read-out for apoptosis (FIG. 3C).

[2] = tested on: LNCaP-ENR cells; assay: MTS/PES cell viability assay, ERPC cells; assay type: cell-based, human
Protocol: Plates were incubated for 72 hours at 37° C. in a CO2 incubator. Cell viability was measured by MTS/PES cell titer assay (Promega Corp., Madison, WI).

[3] = tested on: LNCaP-ENR and MR49F ERPC cells; assay: In vitro invasion through extracellular matrix; assay type: cell-based, human; conditions: LNCaP-ENR and MR49F ERPC cells (data not shown)
[4] = cited from earlier work
[5] = tested on: Trib2-OE cells; assay: Enzalutamide sensitivity of Trib2-overexpressing prostate cancer cells; assay type: cell-based, human; conditions: Trib2-OE cells, DCV 6 μM
From the text: Prostate cancer cells were transfected with full length human gene to overexpress Trib2 (FIG. 18). […] Trib2 siRNA was used in parallel experiments as a positive control.

[6] = cited from earlier work; remark: listed apart in the source
[7] = cited from earlier work; remark: listed apart in the source
[8] = tested on: LNCaP-ENR cells; assay: Soft-agar colony formation assay; assay type: cell-based, human; conditions: LNCaP-ENR (ERPC) cells, three weeks; DCV at 8 μM
Protocol: Effect of DCV on soft-agar colony formation was also analyzed. LNCaP-ENR cells (10,000 per well in 6-well plates) were plated in 0.3% soft-agar on top of a base layer of 0.6% agar. The cells were treated with DCV and incubated at 37° C. for three weeks in the CO2 incubator. Cells were given fresh media and drug every fourth day. At the end of the incubation period, colonies were stained with 0.025% crystal violet, and pictures of colonies were taken with a Nikon digital camera at ×200. Image processing was done using Q-Capture Pro-7 software. Exemplary methods of the foregoing technique can be found in Sarveswaran, Sivalokanathan et al. “Inhibition of 5-lipoxygenase downregulates stemness and kills prostate cancer stem cells by triggering apoptosis via activation of c-Jun N-terminal kinase.” Oncotarget vol. 10, 4 424-436. 11 Jan. 2019, the disclosure of which is incorporated herein by reference in its entirety.

[9] = tested on: pAkt, Bcl-xL, Survivin, and FOXO3; assay: Western blot of TRIB2 downstream targets in LNCaP-ENR cells; assay type: cell-based, human; conditions: 12 μM, 24 hours
Protocol: (§1) LNCaP-ENR cells were treated with varying doses (4 μM, 8 μM, or 12 μM) of DCV for 24 hours. Effects on TRIB2 protein levels and its downstream targets (e.g., pAkt, Bcl-xL, Survivin, and FOXO3) were analyzed by Western blot. GAPDH was used as loading control. Protein levels of TRIB2, pAKT (S473), Bcl-xL, and Survivin were reduced in cells treated with 12 μM of DCV compared to control-treated cells (FIG. 3A). Levels of FOXO3 protein were increased at 12 μM of DCV treatment compared to control treatment. This was expected, as FOXO3 level is known to be decreased by Trib2. These effects on cellular protein levels were DCV concentration-dependent, with the most pronounced effects observed at the highest concentration tested (12 μM).

[10] = molecular target: T1, TRIB2 (Homo sapiens, UniProt Q92519); assay: Western blot of TRIB2 protein levels in cancer cells; assay type: cell-based; parameters: Whole cell lysate proteins were analyzed by Western blot; endogenous in cells; host or cells: LNCaP-ENR (enzalutamide-resistant LNCaP) cells; conditions: for TRIB2 protein levels: LNCaP-ENR cells, 24 hours
T1 sequence (Q92519 1-343): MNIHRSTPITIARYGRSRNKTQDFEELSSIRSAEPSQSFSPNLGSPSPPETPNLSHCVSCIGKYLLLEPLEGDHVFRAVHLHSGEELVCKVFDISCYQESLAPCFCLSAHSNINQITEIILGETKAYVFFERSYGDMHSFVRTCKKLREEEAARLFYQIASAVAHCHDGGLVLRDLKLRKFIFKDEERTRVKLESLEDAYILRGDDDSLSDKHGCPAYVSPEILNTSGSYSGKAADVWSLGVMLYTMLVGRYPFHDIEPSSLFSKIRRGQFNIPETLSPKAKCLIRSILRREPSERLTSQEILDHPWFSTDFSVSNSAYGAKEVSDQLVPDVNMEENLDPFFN
Protocol: Enzalutamide-resistant prostate cancer (ERPC) cells (LNCaP-ENR cells) were plated and treated with 10 μM each of various compounds for 24 hours. Exemplary methods for developing and using LNCaP-ENR cells is disclosed in Monga, J., Subramani, D., Bharathan, A., and Ghosh, J. (2020) “Pharmacological and genetic targeting of 5-lipoxygenase interrupts c-Myc oncogenic signaling and kills enzalutamide-resistant prostate cancer cells via apoptosis.” Scientific Reports 10: 6649, the disclosure of which is incorporated herein by reference in its entirety. Whole cell lysate proteins were analyzed by Western blot. TRIB2 antibody was used to detect protein levels of TRIB2 and GAPDH was used as loading control. Monoclonal anti-Trib2 antibody was purchased from Santa Cruz Biotech, Santa Cruz, CA.
as §1

[11] = tested on: ERPC tumors (LNCaP-ENR cells)
Protocol: BALB/c nude mice were subcutaneously injected with the LNCaP-ENR cells (1×10^6 cells per mouse) to develop tumors. Once the tumors reached a size of ~100 cubic mm, the mice were treated with 30 mg/kg/day DCV or a solution of DMSO:cremophor:PBS at 1:1:8 ratio, orally for four weeks (n=3). Tumor size and body weights were measured once per week. Tumor volumes were calculated using the following formula:
[formula] • Wherein “TV” means tumor volume; • “a” is the long diameter of a tumor; and • “b” is the short diameter of a tumor.
Tumor samples were collected at 4 weeks post-treatment, and TRIB2 protein levels in the tumors were determined by immunohistochemistry (IHC) using monoclonal anti-Trib2 antibody (Santa Cruz Bio, Santa Cruz, CA; Cat. No.: 100878) at 1:100.

[12] = tested on: normal, non-cancer cells; assay: Effects on normal, non-cancer cells; assay type: cell-based; conditions: same experimental conditions as ERPC cells
[13] = molecular target: T2, pure Trib2 protein (Homo sapiens, UniProt Q92519); assay: Thermal shift assay by Differential Scanning Spectro-fluorometry; assay type: binding; conditions: decreased from 41° C. (DMSO only)
T2 sequence (Q92519 1-343): T1 sequence (Q92519 1-343)
From the text: FIG. 8 depicts a graph showing the results of a thermal shift assay of pure Trib2 protein by Differential Scanning Spectro-fluorometry.

[14] = tested on: NCI-H226, SK-MES-1, NCI-H2228 and NCI-H596 lung cancer cell lines; assay: 72-hour cell viability assay in lung cancer cell lines; assay type: cell-based, human

SMILES: COC(=O)N[C@H](C(=O)N1CCC[C@H]1c1nc(-c2ccc(-c3ccc(-c4c[nH]c([C@@H]5CCCN5C(=O)[C@@H](NC(=O)OC)C(C)C)n4)cc3)cc2)c[nH]1)C(C)C [Daclatasvir, 4,4′-bis[2-((2S)-1-{(2S)-2-[(methoxycarbonyl)amino]-3-methylbutanoyl}-2-pyrrolidinyl)-1H-imidazol-4-yl]-1,1′-biphenyl]
- Annexin V binding [1]: increased
- Cell viability ([2]; LNCaP-ENR cells, varying doses, 72 hours, MTS/PES): effectively decreased
- effective concentration in the pre-clinical prostate cancer modeling ([2]; target steady state plasma concentration of planned trial): 4 µM
- in vitro invasion through extracellular matrix [3]: dramatically decreases
- uptake rate ([4]; delivered orally): about 67%
- protein bound ([4]; in vivo): ~ 99%
- half-life ([4]; mammalian hosts): about 15 hours
- tolerability ([4]; mammalian hosts): very well tolerated
- re-sensitization of resistant cells to enzalutamide [5]: re-sensitizes resistant cells to enzalutamide
- tolerability ([6]; 100 mg po daily): well tolerated
- median peak plasma concentration ([6]; after one dose of 60 mg, listed as DCV): ~ 2 μg/ml and 2.5 μM
- mean terminal half-life ([6]; in vivo): 12 to 15 h
- time to peak plasma concentrations after dosing ([6]; in vivo): 1 to 2 h
- time to steady state levels ([6]; in vivo): after three days of administration
- solubility in aqueous solvents [7]: freely soluble
- soft-agar colony formation [8]: completely blocked
- Levels of FOXO3 protein ([9]; vs control treatment): increased
- Protein levels of pAKT (S473), Bcl-xL, and Survivin ([9]; vs control-treated cells): reduced
- TRIB2 protein levels ([10]; 10 μM, Western blot): downregulated
- TRIB2 protein levels ([10]; 12 μM, vs control-treated cells): reduced
- Trib2 protein level ([10]; range of aggressive cancer cell lines, including prostate, lung, and kidney): downregulates
- Tumor volumes ([11]; 30 mg/kg/day orally for four weeks, vs vehicle-treated animals): significantly reduced
- TRIB2 protein levels in tumors by IHC ([11]; 30 mg/kg/day orally, 4 weeks): reduced
- effects on normal, non-cancer cells [12]: minimal effects
- Tm of Trib2 protein in presence of DCV [13]: 37 °C
- killing of lung cancer cells [14]: effectively kills

From US12721838B2 (Henry Ford Health System, priority 2020, dated 2026)
